Assay results published in PubChem BioAssay AID2060616 (Molecular Pharmacology Branch, DTP, NCI, 2025).

Tested on: 377384-186-R-J1-PDC complex spheroid viability
Test: Anticancer human tumor 377384-186-R-J1-PDC patient-derived pancreatic carcinoma cell line growth inhibition [CLK]
Settings: for IC50: curve of first compound; for viability, T/C: stronger effect = lower value
Method in brief: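 Multi-cell-type spheroids combined patient-derived tumor cells with HUVEC endothelial cells and human mesenchymal stem cells. Paired agents were dosed in half-log steps down from about clinical Cmax, or from 10 microM where Cmax was unknown.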

[1] = second compound 0.0316 µM, first compound 0.0316 µM
[2] = second compound 0.0316 µM, first compound 0.1 µM
[3] = second compound 0.0316 µM, first compound 0.316 µM
[4] = second compound 0.0316 µM, first compound 1 µM
[5] = second compound 0.1 µM, first compound 0.0316 µM
[6] = second compound 0.1 µM, first compound 0.1 µM
[7] = second compound 0.1 µM, first compound 0.316 µM
[8] = second compound 0.1 µM, first compound 1 µM
[9] = second compound 0.316 µM, first compound 0.0316 µM
[10] = second compound 0.316 µM, first compound 0.1 µM
[11] = second compound 0.316 µM, first compound 0.316 µM
[12] = second compound 0.316 µM, first compound 1 µM
[13] = second compound 1 µM, first compound 0.0316 µM
[14] = second compound 1 µM, first compound 0.1 µM
[15] = second compound 1 µM, first compound 0.316 µM
[16] = second compound 1 µM, first compound 1 µM
[17] = second compound 3.16 µM, first compound 0.0316 µM
[18] = second compound 3.16 µM, first compound 0.1 µM
[19] = second compound 3.16 µM, first compound 0.316 µM
[20] = second compound 3.16 µM, first compound 1 µM
[21] = second compound 10 µM, first compound 0.0316 µM
[22] = second compound 10 µM, first compound 0.1 µM
[23] = second compound 10 µM, first compound 0.316 µM
[24] = second compound 10 µM, first compound 1 µM
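Note: spheroids exposed to agents for 7 days before reading.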
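Throughout, for viability, T/C: luminescence signal used as a stand-in for viable cells.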

CCc1c2c(nc3ccc(O)cc13)-c1cc3c(c(=O)n1C2)COC(=O)[C@]3(O)CC + CNC(=O)c1ccc(Nc2nc(OC3CCCC3)c3c(-c4ccc5nc(C)oc5c4)c[nH]c3n2)c(OC)c1
IC50 (second compound 0.0316 µM): < 3.16 nM | IC50 (second compound 0.1 µM): < 3.16 nM | IC50 (second compound 0.316 µM): < 3.16 nM | IC50 (second compound 1 µM): < 3.16 nM | IC50 (second compound 3.16 µM): < 3.16 nM | IC50 (second compound 10 µM): < 3.16 nM | viability, T/C (second compound 0.0316 µM, first compound 0.00316 µM): 25.8% | viability, T/C (second compound 0.0316 µM, first compound 0.01 µM): 11.6% | viability, T/C [1]: 4.72% | viability, T/C [2]: 2.28% | viability, T/C [3]: 1.46% | viability, T/C [4]: 0.55% | viability, T/C (second compound 0.1 µM, first compound 0.00316 µM): 17.5% | viability, T/C (second compound 0.1 µM, first compound 0.01 µM): 9.08% | viability, T/C [5]: 4.28% | viability, T/C [6]: 2.07% | viability, T/C [7]: 1.21% | viability, T/C [8]: 0.63% | viability, T/C (second compound 0.316 µM, first compound 0.00316 µM): 10.7% | viability, T/C (second compound 0.316 µM, first compound 0.01 µM): 7% | viability, T/C [9]: 3.57% | viability, T/C [10]: 2.54% | viability, T/C [11]: 1.19% | viability, T/C [12]: 0.53% | viability, T/C (second compound 1 µM, first compound 0.00316 µM): 12.9% | viability, T/C (second compound 1 µM, first compound 0.01 µM): 8.91% | viability, T/C [13]: 3.7% | viability, T/C [14]: 1.76% | viability, T/C [15]: 1.06% | viability, T/C [16]: 0.66% | viability, T/C (second compound 3.16 µM, first compound 0.00316 µM): 14.4% | viability, T/C (second compound 3.16 µM, first compound 0.01 µM): 8.07% | viability, T/C [17]: 3.3% | viability, T/C [18]: 1.8% | viability, T/C [19]: 1.68% | viability, T/C [20]: 0.58% | viability, T/C (second compound 10 µM, first compound 0.00316 µM): 13.4% | viability, T/C (second compound 10 µM, first compound 0.01 µM): 8.53% | viability, T/C [21]: 3.76% | viability, T/C [22]: 1.55% | viability, T/C [23]: 0.98% | viability, T/C [24]: 0.79%

O=c1[nH]cc(F)c(=O)[nH]1 + CNC(=O)c1ccc(Nc2nc(OC3CCCC3)c3c(-c4ccc5nc(C)oc5c4)c[nH]c3n2)c(OC)c1
IC50 (second compound 0.0316 µM): 3650 nM | IC50 (second compound 0.1 µM): 46.4 nM | IC50 (second compound 0.316 µM): < 31.6 nM | IC50 (second compound 1 µM): < 31.6 nM | IC50 (second compound 3.16 µM): < 31.6 nM | IC50 (second compound 10 µM): < 31.6 nM | viability, T/C [1]: 98% | viability, T/C [2]: 98.3% | viability, T/C [3]: 96% | viability, T/C [4]: 82.1% | viability, T/C (second compound 0.0316 µM, first compound 3.16 µM): 50.3% | viability, T/C (second compound 0.0316 µM, first compound 10 µM): 46.3% | viability, T/C [5]: 49.6% | viability, T/C [6]: 50.9% | viability, T/C [7]: 45.4% | viability, T/C [8]: 54.5% | viability, T/C (second compound 0.1 µM, first compound 3.16 µM): 41.6% | viability, T/C (second compound 0.1 µM, first compound 10 µM): 43.5% | viability, T/C [9]: 20.4% | viability, T/C [10]: 20.3% | viability, T/C [11]: 16.7% | viability, T/C [12]: 16.4% | viability, T/C (second compound 0.316 µM, first compound 3.16 µM): 14.5% | viability, T/C (second compound 0.316 µM, first compound 10 µM): 14% | viability, T/C [13]: 22% | viability, T/C [14]: 17.8% | viability, T/C [15]: 19.2% | viability, T/C [16]: 14.9% | viability, T/C (second compound 1 µM, first compound 3.16 µM): 13.2% | viability, T/C (second compound 1 µM, first compound 10 µM): 10.7% | viability, T/C [17]: 20.2% | viability, T/C [18]: 19.7% | viability, T/C [19]: 17.6% | viability, T/C [20]: 16.7% | viability, T/C (second compound 3.16 µM, first compound 3.16 µM): 12.6% | viability, T/C (second compound 3.16 µM, first compound 10 µM): 9.93% | viability, T/C [21]: 16.8% | viability, T/C [22]: 17.2% | viability, T/C [23]: 17.1% | viability, T/C [24]: 16% | viability, T/C (second compound 10 µM, first compound 3.16 µM): 10.8% | viability, T/C (second compound 10 µM, first compound 10 µM): 11.4%
